# Experimental data published in ChEMBL document CHEMBL1201862, “PubChem BioAssay data set” (2004).
# Activity calls are given as the source filed them.
# Legend:
# [1] = molecular target: FAD-linked sulfhydryl oxidase ALR (Homo sapiens, UniProt P55789); experiment: inhibitors of human ALR sulfhydryl oxidase, dose response, biochemical, H2O2 detection, luminescence, cherry-pick (AID 493248)
# [2] = molecular target: T1, Rac GTPase-activating protein 1 (Homo sapiens, UniProt Q9H0H5); experiment: MgcRacGAP GTPase-activating activity inhibitors, confirmation, biochemical, ADP Hunter fluorescence, primary and confirmatory (AID 624330); type: functional
# T1 sequence (Q9H0H5 whole entry): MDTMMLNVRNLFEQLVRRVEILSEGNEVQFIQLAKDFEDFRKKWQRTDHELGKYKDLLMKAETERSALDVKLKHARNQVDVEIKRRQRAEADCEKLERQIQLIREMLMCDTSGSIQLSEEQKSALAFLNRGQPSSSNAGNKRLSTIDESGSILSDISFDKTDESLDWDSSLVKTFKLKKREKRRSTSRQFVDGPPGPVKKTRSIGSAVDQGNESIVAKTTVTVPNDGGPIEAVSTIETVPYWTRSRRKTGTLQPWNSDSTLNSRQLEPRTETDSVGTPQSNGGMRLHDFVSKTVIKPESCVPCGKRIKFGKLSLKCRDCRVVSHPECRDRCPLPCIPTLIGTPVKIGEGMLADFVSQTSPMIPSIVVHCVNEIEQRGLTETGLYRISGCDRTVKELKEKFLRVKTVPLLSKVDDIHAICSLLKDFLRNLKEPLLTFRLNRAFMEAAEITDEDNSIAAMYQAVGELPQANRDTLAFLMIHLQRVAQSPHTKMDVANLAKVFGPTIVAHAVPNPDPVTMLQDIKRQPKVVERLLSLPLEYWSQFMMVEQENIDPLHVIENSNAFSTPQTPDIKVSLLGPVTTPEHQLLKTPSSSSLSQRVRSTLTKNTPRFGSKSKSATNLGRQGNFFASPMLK
# Fatty acid synthase [3] = molecular target: T2, Fatty acid synthase (Homo sapiens, UniProt P49327); experiment: FAS thioesterase domain inhibitors, dose response, biochemical, endpoint fluorescence intensity, uHTS hits (AID 624327); type: functional;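 also: fluorescence from hydrolysis of an O-methyl fluorescein acyl ester substrate by the enzyme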
# T2 sequence (P49327 whole entry, the tested form may be a part): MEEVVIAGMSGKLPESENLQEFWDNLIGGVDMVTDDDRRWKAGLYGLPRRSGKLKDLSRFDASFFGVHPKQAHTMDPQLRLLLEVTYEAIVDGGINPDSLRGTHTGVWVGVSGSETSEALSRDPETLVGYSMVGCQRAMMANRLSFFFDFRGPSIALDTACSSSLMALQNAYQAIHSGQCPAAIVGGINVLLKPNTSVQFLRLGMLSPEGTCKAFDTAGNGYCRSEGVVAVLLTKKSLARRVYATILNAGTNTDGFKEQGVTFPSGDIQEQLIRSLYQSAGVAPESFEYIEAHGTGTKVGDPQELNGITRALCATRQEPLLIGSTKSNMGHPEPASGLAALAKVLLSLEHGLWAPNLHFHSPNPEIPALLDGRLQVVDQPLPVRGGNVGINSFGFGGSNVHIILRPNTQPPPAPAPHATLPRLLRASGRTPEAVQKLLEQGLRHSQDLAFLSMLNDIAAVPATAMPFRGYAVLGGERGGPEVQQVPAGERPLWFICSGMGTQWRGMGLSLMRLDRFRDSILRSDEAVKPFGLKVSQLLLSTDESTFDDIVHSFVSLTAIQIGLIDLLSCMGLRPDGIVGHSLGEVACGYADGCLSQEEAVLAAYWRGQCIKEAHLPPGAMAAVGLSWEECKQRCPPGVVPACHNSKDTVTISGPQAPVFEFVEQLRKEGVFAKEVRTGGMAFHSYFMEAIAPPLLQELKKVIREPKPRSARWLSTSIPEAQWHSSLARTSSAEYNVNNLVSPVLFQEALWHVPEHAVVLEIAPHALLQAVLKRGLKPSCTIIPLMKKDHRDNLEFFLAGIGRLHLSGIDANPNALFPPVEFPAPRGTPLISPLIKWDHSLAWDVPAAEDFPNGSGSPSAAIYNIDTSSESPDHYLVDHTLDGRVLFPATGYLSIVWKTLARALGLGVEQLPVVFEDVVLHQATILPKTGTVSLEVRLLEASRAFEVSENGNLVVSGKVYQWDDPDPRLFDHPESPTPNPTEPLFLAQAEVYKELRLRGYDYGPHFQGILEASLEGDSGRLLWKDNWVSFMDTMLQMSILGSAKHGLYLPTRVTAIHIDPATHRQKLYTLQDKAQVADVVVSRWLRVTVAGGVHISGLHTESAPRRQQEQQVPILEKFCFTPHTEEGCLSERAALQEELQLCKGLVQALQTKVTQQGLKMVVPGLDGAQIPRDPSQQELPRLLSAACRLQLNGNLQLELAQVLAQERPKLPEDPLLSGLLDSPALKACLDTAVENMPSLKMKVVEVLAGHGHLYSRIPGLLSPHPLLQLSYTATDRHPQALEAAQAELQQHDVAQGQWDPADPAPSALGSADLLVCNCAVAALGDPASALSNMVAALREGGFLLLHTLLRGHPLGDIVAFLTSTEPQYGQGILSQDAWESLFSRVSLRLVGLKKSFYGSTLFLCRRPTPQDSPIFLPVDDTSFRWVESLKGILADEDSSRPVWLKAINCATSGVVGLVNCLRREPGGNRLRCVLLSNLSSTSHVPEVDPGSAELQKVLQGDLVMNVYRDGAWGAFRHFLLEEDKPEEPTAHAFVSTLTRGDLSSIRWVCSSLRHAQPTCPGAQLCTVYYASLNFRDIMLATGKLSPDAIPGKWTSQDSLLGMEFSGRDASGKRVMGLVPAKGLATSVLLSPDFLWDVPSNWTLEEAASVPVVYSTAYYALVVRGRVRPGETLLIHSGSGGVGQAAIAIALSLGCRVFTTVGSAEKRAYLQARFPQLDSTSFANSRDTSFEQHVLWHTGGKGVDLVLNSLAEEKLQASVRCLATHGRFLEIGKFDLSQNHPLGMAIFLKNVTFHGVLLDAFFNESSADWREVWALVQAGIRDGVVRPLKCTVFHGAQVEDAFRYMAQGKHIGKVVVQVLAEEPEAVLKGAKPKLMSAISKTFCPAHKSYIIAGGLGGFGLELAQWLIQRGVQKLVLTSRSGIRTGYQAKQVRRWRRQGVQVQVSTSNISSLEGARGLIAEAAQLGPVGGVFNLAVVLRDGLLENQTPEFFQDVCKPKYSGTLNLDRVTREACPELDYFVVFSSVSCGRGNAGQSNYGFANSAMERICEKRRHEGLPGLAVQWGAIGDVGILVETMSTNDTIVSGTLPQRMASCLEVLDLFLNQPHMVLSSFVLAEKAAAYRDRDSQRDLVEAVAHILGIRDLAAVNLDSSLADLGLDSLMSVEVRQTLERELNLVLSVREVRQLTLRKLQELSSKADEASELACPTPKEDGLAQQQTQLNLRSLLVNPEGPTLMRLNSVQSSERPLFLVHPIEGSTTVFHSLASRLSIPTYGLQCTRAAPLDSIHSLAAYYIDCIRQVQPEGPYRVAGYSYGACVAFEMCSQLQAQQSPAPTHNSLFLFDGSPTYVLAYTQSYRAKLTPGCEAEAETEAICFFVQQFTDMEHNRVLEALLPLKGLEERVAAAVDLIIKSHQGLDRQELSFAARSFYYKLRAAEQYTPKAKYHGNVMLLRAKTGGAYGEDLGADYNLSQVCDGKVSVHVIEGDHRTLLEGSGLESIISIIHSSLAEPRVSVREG
# Fatty acid synthase [4] = molecular target: T2, Fatty acid synthase; experiment: FAS thioesterase domain inhibitors, dose response, biochemical, kinetic fluorescence intensity (AID 624326); type: functional;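 also: rate of fluorescence rise from hydrolysis of a fluorogenic O-methyl fluorescein ester substrate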
# [5] = molecular target: T3, RNA-binding protein pos-1 (Caenorhabditis elegans, UniProt G5EF15); experiment: inhibitors of POS-1/mex-3 RNA binding, dose response, biochemical, fluorescence polarization (AID 1964);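 also: purified POS-1 fused to maltose binding protein made in E. coli; potency of compounds blocking POS-1 binding to fluorescent RNA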
# T3 sequence (G5EF15 whole entry): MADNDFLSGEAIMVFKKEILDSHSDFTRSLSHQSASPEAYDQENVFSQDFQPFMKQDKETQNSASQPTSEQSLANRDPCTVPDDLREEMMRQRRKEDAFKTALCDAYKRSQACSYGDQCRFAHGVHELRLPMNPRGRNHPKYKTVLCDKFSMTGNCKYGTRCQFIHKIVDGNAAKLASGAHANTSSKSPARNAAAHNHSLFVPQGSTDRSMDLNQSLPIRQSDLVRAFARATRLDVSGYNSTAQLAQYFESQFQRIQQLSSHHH
# [6] = molecular target: T4, Zinc finger protein mex-5 (Caenorhabditis elegans, UniProt Q9XUB2); experiment: MEX-5/TCR-2 RNA interaction inhibitors, dose response, biochemical, C. elegans, fluorescence polarization (AID 1960)
# T4 sequence (Q9XUB2 whole entry): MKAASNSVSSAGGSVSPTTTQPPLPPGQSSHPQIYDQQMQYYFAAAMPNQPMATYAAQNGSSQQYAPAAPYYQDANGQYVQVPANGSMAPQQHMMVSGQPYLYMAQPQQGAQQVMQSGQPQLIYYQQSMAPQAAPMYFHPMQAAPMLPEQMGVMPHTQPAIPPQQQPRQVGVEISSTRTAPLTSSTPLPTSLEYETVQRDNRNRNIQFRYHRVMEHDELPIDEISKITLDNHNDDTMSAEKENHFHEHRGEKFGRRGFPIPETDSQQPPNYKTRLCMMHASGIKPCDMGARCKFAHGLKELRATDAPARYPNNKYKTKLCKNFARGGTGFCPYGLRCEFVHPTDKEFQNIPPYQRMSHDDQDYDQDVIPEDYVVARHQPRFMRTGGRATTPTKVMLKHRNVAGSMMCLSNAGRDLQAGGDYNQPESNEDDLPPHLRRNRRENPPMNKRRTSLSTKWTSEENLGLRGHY
# SN12K1 = experiment: cells; type: functional; conditions: Homo sapiens
# [7] = inhibitors of intracellular T. cruzi replication, confirmation, NIH3T3 host cells, beta-gal luminescence (AID 2044); type: functional, cell-based;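 also: intracellular parasites grown in NIH/3T3 mouse fibroblasts as host cells; luminescent beta-galactosidase reporter signal from transgenic T. cruzi replicating inside host cells; inhibitors lower the luminescence signal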
# [8] = cytotoxicity toward NIH3T3 fibroblasts, dose response, counter-screen, cell-based, ATP luminescence, mouse fibroblasts (AID 2010); type: functional;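 also: cells exposed to compound for about 90 hours before reading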
# [9] = molecular target: T5, Calpain-2 catalytic subunit (Sus scrofa, UniProt P43367); experiment: pig calpain II inhibitor potency, dose response, biochemical, fluorogenic peptide substrate (AID 1420); type: functional
# T5 sequence (P43367 whole entry): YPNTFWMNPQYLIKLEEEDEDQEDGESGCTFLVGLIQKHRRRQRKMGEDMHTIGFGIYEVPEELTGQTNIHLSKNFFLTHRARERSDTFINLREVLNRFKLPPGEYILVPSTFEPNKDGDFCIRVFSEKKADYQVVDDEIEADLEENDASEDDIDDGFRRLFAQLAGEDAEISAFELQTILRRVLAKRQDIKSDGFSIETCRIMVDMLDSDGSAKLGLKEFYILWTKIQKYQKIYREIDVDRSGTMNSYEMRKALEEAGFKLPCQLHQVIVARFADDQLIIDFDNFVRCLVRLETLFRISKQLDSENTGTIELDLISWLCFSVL
# [10] = molecular target: T6, Heat shock factor protein 1 (Mus musculus, UniProt P38532); experiment: inhibition of MG132-induced HSE-luciferase signal, confirmation, cell-based, NIH3T3, luminescence, dose retest (AID 2382); type: functional;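 also: NIH3T3 fibroblasts with HSF1-driven luciferase reporter stressed by proteasome inhibitor MG132; luminescence from HSF1-driven luciferase expression after 8 hours of MG132 stress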
# T6 sequence (P38532 whole entry): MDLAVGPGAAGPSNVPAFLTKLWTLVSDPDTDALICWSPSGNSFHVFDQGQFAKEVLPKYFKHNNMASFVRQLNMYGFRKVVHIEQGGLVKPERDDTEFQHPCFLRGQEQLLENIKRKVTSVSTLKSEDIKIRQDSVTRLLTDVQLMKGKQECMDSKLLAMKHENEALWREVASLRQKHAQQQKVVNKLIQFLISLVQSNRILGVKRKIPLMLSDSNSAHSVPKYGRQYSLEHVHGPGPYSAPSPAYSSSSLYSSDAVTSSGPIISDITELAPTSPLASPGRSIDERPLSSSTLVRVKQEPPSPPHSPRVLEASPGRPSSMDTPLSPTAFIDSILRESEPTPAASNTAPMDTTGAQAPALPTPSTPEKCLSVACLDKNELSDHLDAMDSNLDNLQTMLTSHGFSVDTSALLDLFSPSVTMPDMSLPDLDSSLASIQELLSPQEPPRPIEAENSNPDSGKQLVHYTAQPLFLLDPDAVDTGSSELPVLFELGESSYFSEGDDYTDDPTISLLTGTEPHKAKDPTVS
# Sequence of FAD-linked sulfhydryl oxidase ALR (P55789 whole entry): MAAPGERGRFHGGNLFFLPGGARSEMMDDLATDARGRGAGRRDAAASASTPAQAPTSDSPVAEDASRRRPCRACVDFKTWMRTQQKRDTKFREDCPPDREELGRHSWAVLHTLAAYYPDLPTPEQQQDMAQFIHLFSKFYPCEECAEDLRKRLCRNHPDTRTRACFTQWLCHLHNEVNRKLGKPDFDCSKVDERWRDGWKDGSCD
Structure (SMILES),IC50 [2],IC50 (Fatty acid synthase [3]),IC50 (Fatty acid synthase [4]),other results
COc1ccc(NC2CCCN(C(=O)CCc3cn[nH]c3)C2)cc1 (stereo not drawn),108 µM (active),,,AC50 [1]: 2.19 µM (active)
Cc1cnc(C(=O)Oc2ccc(-c3ccccc3)cc2)cn1,12.5 µM (active),,,
C[C@@]12C(=O)Nc3ccccc3C(=O)N1[C@H]1c3cc(Br)ccc3OC[C@@H]1[C@@H]2c1ccccc1,,16.2 µM (active),11.8 µM (active),
Cc1ccc(-n2c(=O)c(C#N)cc3c(=O)n4ccccc4nc32)cc1C,,,,EC50 [5]: > 300 µM (not active); EC50 [6]: 55.8 µM (active)
COc1ccc(-n2c(SCc3ccc([N+](=O)[O-])cc3)nnc2-c2ccccc2)cc1,,5.24 µM (active),3.44 µM (active),
Cc1ccc(NC(=O)Cn2c(=O)c(C)nc3ccccc32)cc1,,,,EC50 [5]: > 300 µM (not active); EC50 [6]: > 300 µM (not active)
Cc1csc(NC(=O)C2CCN(S(=O)(=O)c3ccc4c(c3)oc(=O)n4C)CC2)n1,,8.65 µM (active),6.81 µM (active),
CC/N=C1\S/C(=C\c2ccc(O)c(OCC)c2)C(=O)N1CC,37.9 µM (active),,,
C[C@@](O)(/C=C/[C@H]1CC=CC(=O)O1)[C@@H](C[C@@H](O)\C=C/C=C\C=C\CO)OP(=O)(O)O [FOSTRIECIN SODIUM],,,,GI50 (SN12K1): 3.72 µM (inactive)
CC1CCc2nn(CC(=O)NCCN3CCCCC3C)cc2C1 (stereo not drawn),,,,EC50 [5]: > 300 µM (not active); EC50 [6]: > 300 µM (not active)
O=C(NCCOc1ccccc1)c1cc(C(=O)NCCOc2ccccc2)cc([N+](=O)[O-])c1,,5.6 µM (active),2.75 µM (active),EC50 [7]: 1.28 µM (active); EC50 [8]: > 60 µM (not active)
COc1ccc(CNCc2cccc(OC)c2OC)cc1Br,149 µM (active),,,
O=C(c1ccccc1)c1coc2ccc(O)c(Cl)c12,75.4 µM (active),,,
CCN(C(=O)CSc1ncnc2c1cnn2-c1ccccc1)C1CCS(=O)(=O)C1 (stereo not drawn),,5.88 µM (active),4.94 µM (active),
CN1CCCCC/C1=N\c1ccccc1C#N,113 µM (active),,,
O=C(O)c1cc(NN=Nc2ccc(Br)cc2)cc([N+](=O)[O-])c1,,5.49 µM (active),6.81 µM (active),IC50 [9]: 12.6 µM (not active)
Cc1cccc(COC[C@H](CC(C)C)N2CCN(C(=O)c3ccc(C(C)(C)C)cc3)CCC2=O)c1,,7.65 µM (active),7.54 µM (active),
CN(C)c1ccc(NS(=O)(=O)c2cc(Cl)ccc2Cl)cc1,57.7 µM (active),,,EC50 [10]: > 195 µM (not active)
O=C(COC(=O)c1cc([N+](=O)[O-])ccc1N1CCOCC1)Nc1cc(F)ccc1F,,2.25 µM (active),1.57 µM (active),
COc1ccccc1C(=O)Nc1ccnn1C1CCN(C(C)CSC)CC1 (stereo not drawn),,,,EC50 [5]: > 300 µM (not active); EC50 [6]: > 300 µM (inconclusive)
O=C(CCC1CCCC1)N1CCN(C2CCCC2)CC1,209 µM (active),,,
